In US20100031452A1, “AZO DYES” (Universite Catholique de Louvain, priority 2008, published 2010):
Values after ≈ are worked out from the molar mass of the structure shown. Like-named read-outs stand apart in the source and are kept apart here. Marks after values point to notes of the source that are not given here.

Legend:
[1] = system: bacterial cells (Lumistox assays); test: Lumistox test (luminescence inhibition); assay type: cell-based
Experimental: (§1) Toxicity was assessed on human intestinal cells (Caco-2), bacterial cells (Lumistox assays) and fish eggs cells. Mutagenicity was assessed through classical Ames test.

fish eggs cells = test: Fish egg test; assay type: in vivo; details: for Fish egg test (IC50 in mg L^−1): in vivo
Experimental: as §1

[2] = system: human intestinal cells (Caco-2); test: Caco-2 cytotoxicity test; assay type: cell-based; details: for Caco-2 cytotoxicity test (IC50 in g L^−1): Caco-2 human intestinal cells
Experimental: as §1
(§2) The toxicity of compound 4 has been measured on Caco-2 human cells as previously described, and compared with the toxicity of compound 1.

Ames test: mutagenicity = assay type: cell-based; details: classical Ames test
Experimental: as §1

Caco-2 cytotoxicity test = assay type: cell-based, human; details: Caco-2 cells; Caco-2 human intestinal cells; read-out: Caco-2 cytotoxicity test (IC50 in g L^−1)
Experimental: as §1, §2

[3] = classical Ames test; published data; cited from earlier work

Structure (SMILES) | Lumistox test % of luminescence inhibition at maximal OD ([1]; at maximal OD) | Fish egg test (IC50 in mg L^−1) (fish eggs cells) | Caco-2 cytotoxicity test (IC50 in g L^−1) [2] | Ames test: mutagenicity (Ames test: mutagenicity) | other results
Nc1ccc2cc(S(=O)(=O)[O-])cc(O)c2c1N=Nc1ccc(Cl)cc1C(F)(F)F.[Na+] [Acid Red 299] | 50.2% | 250 to 500 µg/mL | >1000 µg/mL | Positive | 
Nc1c(S(=O)(=O)O)cc(/N=N/c2c(S(=O)(=O)O)cc(NC3CCCCC3)c3c2C(=O)c2ccccc2C3=O)c2c1C(=O)c1ccccc1C2=O [Compound 1, 1-[(4-amino-9,10-dioxo-3-sulfo-9,10-dihydroanthracen-1-yl)diazenyl]-4-cyclohexylamino-9,10-dioxo-9,10-dihydroanthracene-2-sulfonic acid] |  |  |  | Negative | Lumistox test % of luminescence inhibition at maximal OD ([1]; up to a maximal optical density (OD) of 1800): 41.6** %; IC50 (fish eggs cells; read-out: Fish egg test (IC50 in mg L^−1)): 294 µg/mL (≈ 411 µM); toxicity (in words) ([2]; in the range tested, with regards to other molecules available on the market): low toxicity; IC50 (Caco-2 cytotoxicity test): > 1000 µg/mL
O=C(Nc1cc(S(=O)(=O)[O-])cc2cc(S(=O)(=O)[O-])c(N=Nc3cc(Nc4nc(Cl)nc(Nc5ccc(S(=O)(=O)[O-])cc5)n4)ccc3S(=O)(=O)[O-])c(O)c12)c1ccccc1.[Na+].[Na+].[Na+].[Na+] [Reactive Red 4] | 25.9% | 500 to 1000 µg/mL | 700 ± 60 µg/mL | Negative | 
CCN(CCO)c1ccc(N=Nc2ccc([N+](=O)[O-])cc2)cc1 [Disperse Red 1] |  | 250 to 500 µg/mL | >1000 µg/mL | Negative | Lumistox test % of luminescence inhibition at maximal OD ([1]; saturated solution): 61.3*** %
O=C1c2ccccc2C(=O)c2c(/N=N\c3cccc(S(=O)(=O)O)c3)c(S(=O)(=O)O)cc(NC3CCCCC3)c21 [Compound 4, 4-Cyclohexylamino-9,10-dioxo-1-(3-sulfo-phenylazo)-9,10-dihydro-anthracene-2-sulfonic acid] |  |  |  |  | toxicity less than the toxicity of compound 1 ([2]; Caco-2 human cells, FIG. 3, relative to compound 1): 30%
Nc1c(N=Nc2ccc(-c3ccc(N=Nc4cc(S(=O)(=O)[O-])c5ccccc5c4N)cc3)cc2)cc(S(=O)(=O)[O-])c2ccccc12.[Na+].[Na+] [Direct Red 28] | 3.4% | <30 µg/mL | 300 ± 20 µg/mL |  | Ames test: mutagenicity [3]: Positive*
